Here are results for 5 molecules from publication PMC5872333, “Antifungal Potential of Host Defense Peptide Mimetics in a Mouse Model of Disseminated Candidiasis” (Journal of Fungi, 2018).

≈ marks a conversion by molar mass, not a printed value. Where two headings read alike, the source gives them in different places. A value given as a limit tells only on which side of the number the result lay.

Data set [1] relates to Candida albicans, strain SC5314. Nature of the data set: MIC/MFC, CLSI broth microdilution, C. albicans. Type of data set: cell-based. The procedure: (§1) A standard invasive candidiasis strain of C. albicans SC5314 was used for peptide mimetic compounds screening. Non-albicans Candida species (NAC) C. dubliniensis (NCPF3949), C. glabrata (ATCC 90030), C. krusei (ATCC 6258), C. parapsilosis (ATCC 22019) and C. tropicalis (ATCC 750) (obtained from the laboratory of David Perlin, PHRI/Rutgers), were cultured on YPD (1% yeast extract, 2% peptone, 2% dextrose, pH 5.7) agar at 37°C and were used for all experimental studies. Fluconazole resistant clinical isolates of C. glabrata from five different patients and C. tropicalis from one patient were collected from the clinical microbiology laboratory, Shands Hospital, University of Florida, Gainesville, FL, USA.
(§2) Candida albicans […], NAC species and fluconazole-resistant clinical isolates of invasive candidiasis strains of C. glabrata and C. tropicalis were used for minimum inhibitory concentration (MIC) and minimum fungicidal concentration (MFC) studies of lead compounds. MICs were determined using the Clinical and Laboratory Standards Institute (CLSI) standard broth microdilution method. Suspensions of C. albicans were prepared by measuring optical density at 595 nm (OD595) of 1.0 in phosphate buffered saline (PBS). HDP mimetic compounds were diluted in 50 µL RPMI/MOPS cell culture medium in a 96-well plate (tissue culture treated; Costar, Corning Incorporated, Corning, NY, USA). To each well, a suspension (50 µL) of Candida was added, and then plate was incubated at 37 °C in a humidified chamber for a period of 24 h. To determine the MFC, a sample (100 µL) from the well defined as having the MIC and the wells with other three higher concentrations were plated onto YPD agar. Candida colonies were observed after 24 h. The MFC is defined as the lowest concentration of compound at which no colonies are observed. All MIC and MFC assays were performed in duplicate.

The subject of data set [2] is whole human blood. Nature of the data set: Hemolysis assay. Type of data set: cell-based. As to conditions: 0.5 h, 30 min, 37 °C. The protocol:
Peptide mimetic compounds were tested in duplicate using a hemolysis assay previously published. Briefly, two-fold serial dilutions starting at 2 mg/mL in 150 mM NaCl (saline), 20% DMA (Alfa Aesar, Ward Hill, MA, US), or 10% kleptose in saline. 3% saponin (Fluka) in saline was used as a positive control. Each dilution of each compound (25 µL) was plated in a 96-well round bottomed plate and 25 µL of whole human blood (BIORECLAMATION, Westbury, NY, USA) was added to each sample and mixed for 10 second. The blood was Type O, from 2 males and 2 females, collected with potassium EDTA to prevent clotting. Plates were incubated on a shaker for 30 min at 37 °C, then centrifuged at 600× g for 5 min. 5 µL of the supernatant was transferred to a 96-well flat-bottomed plate with 200 µL H2O in each well and mixed for 5 min. Absorbance was read at 405 nm (Spectramax 250, Molecular Devices, San Jose, CA, USA). Percent hemolysis was then calculated as:
P = (OD405 (PMX compound) – OD405 (control))/(OD405 (Saponin) – OD405 (control))
Curves were fitted to report an HC50 (50% hemolysis) value for each compound: […]

The subject of data set [3] is C. krusei (ATCC 6258). Kind of data set: MIC broth microdilution, C. krusei. It is filed as cell-based, Candida krusei. As to conditions: Pichia kudriavzevii, ATCC6258; read-out: NAC species MIC, C. krusei. The protocol: as §1, §2
The test system of data set [4] is C. glabrata (ATCC 90030). Nature of the data set: MIC broth microdilution, C. glabrata. Type of data set: cell-based, Candida glabrata. The note with it: Nakaseomyces glabratus, ATCC90030; read-out: NAC species MIC, C. glabrata. The procedure:
as §1, §2

For data set [5], the system named is C. tropicalis (ATCC 750). Nature of the data set: MIC broth microdilution, C. tropicalis. Type of data set: cell-based. The note with it: Candida tropicalis, ATCC750; read-out: NAC species MIC, C. tropicalis. The protocol: as §1, §2
Data set [6] concerns C. dubliniensis (NCPF3949). Nature of the data set: MIC broth microdilution, C. dublinensis. It is filed as cell-based. As to conditions: Candida dubliniensis, read-out: NAC species MIC, C. dublinensis. The protocol: as §1, §2
For data set [7], the system named is C. albicans. Nature of the data set: Yeast membrane permeability, propidium iodide incorporation (flow cytometry). Type of data set: cell-based, Candida albicans. The procedure:
C. albicans was suspended in RPMI/MOPS media to a total concentration of 2 × 10^6 cfu/mL. One ml aliquots of the C. albicans suspension were treated with each mimetic compound at a concentration of 32 µg/mL, using 95% ethanol as positive control. Samples were incubated with the mimetics at 30 °C for 0, 5, 15 and 30 min. After treatment, samples were centrifuged at 5000 rpm for 5 min. Supernatants were removed and pellets were washed twice with 1 mL of PBS. […] Samples were analyzed by flow cytometry (FACSCalibur, Becton Dickinson, Immunocytometry Systems, San Jose, CA, USA) to assess percent uptake of PI.

Data set [8] in a line: Mammalian cell cytotoxicity, MTS viability assay, 3T3. It is filed as cell-based. As to conditions: mouse, 3T3 fibroblasts (ATCC CRL-1658), 3T3 cells, 1 h exposure without serum. The procedure:
Cytotoxicity (50% effective concentration (EC50)) was determined against mouse 3T3 fibroblasts (ATCC CRL-1658), OKF6/TERT-1 cells (oral keratinocytes), and human transformed liver HepG2 cells (ATCC HB-8065), using an MTS viability assay (Promega, Fitchburg, WI, USA). Growth medium was replaced with medium without serum, and eight 2-fold dilutions of compound were added. Following incubation for 1 h at 37 °C, compounds were removed, and medium containing serum was returned. Viability was determined using an MTS viability assay (CellTiter 96 aqueous nonradioactive cell proliferation assay, Promega).

Data set [9] can be described thus: Maximum tolerated dose (MTD) determination. The note with it: mouse, in vivo, sc. The procedure:
Female CD-1 mice (Charles River Laboratories), 8–10 weeks old, >20 g were used to determine the MTD. Mice were housed individually in stainless steel, wire-bottom cages to minimize access to urine and feces and fed Harlan Teklad Certified Global Diet® with tap water ad libitum. Mice were acclimated to the study room at least 3 days prior to dosing. Mice (3 per group) were dosed with a subcutaneous (SC) bolus injection beginning with 10 mg/kg of the test compound at a concentration of 2 mg/mL. Doses were lowered two-fold for subsequent groups to find the MTD. The dose volume was […], calculated using the weight of the animal on the day of injection. There were 3 dose events, with 2 days between each event. […] Body weights were obtained daily until the day of euthanization with a CO2 overdose. Any mortality during the study was also recorded. MTD data were obtained by Ricerca Biosciences, LLC, Concord, OH, USA. MTD of each HDP mimetic in CD-1 mice was determined and our studies utilized doses beginning with 0.5X MTD.

Data set [10] has as its system C. parapsilosis (ATCC 22019). Kind of data set: MIC broth microdilution, C. parapsilosis. As to conditions: Lodderomyces parapsilosis, ATCC22019; read-out: NAC species MIC, C. parapsilosis. It is filed as cell-based, Candida parapsilosis. The procedure: as §1, §2
Data set [11] relates to C. albicans SC5314. Nature of the data set: Immunosuppressed mouse model of invasive candidiasis, kidney burden. Type of data set: in vivo, CD-1 mice. As to conditions: 20 mg/kg by gavage 2 h after infection, 24 h, average of four independent experiments. The protocol: C. albicans SC5314 were grown in YPD broth (Difco laboratories, Detroit, MI, USA) and stock cultures were stored at −80 °C. The frozen stocks were first grown on YPD plates and kept at 4 °C. Prior to each experiment, a stock inoculum suspension of Candida was prepared in YPD broth and incubated at 30 °C with shaking at 200 rpm for 12 h. The culture was washed twice with sterile 1X phosphate buffered saline (PBS), counted with a hemocytometer, and diluted with PBS to get the desired concentration of 3.5 × 10^5 cfu/mL. 100 µL was injected intravenously (IV) into each mouse via the tail vein. […]
Male CD-1 mice, 6–8 weeks old (20–22 g), were made neutropenic with two intraperitoneal (IP) injections of 150 mg/kg in 10 mL/kg cyclophosphamide four days and one day before inoculation. […] 2 h after C. albicans inoculation, mimetic compounds were injected subcutaneously (SC) at 0.5X of the MTD (determined by […] as described). Fluconazole (20 mg/kg) was administered to another group by oral gavage at 2 h post inoculation, as a positive control for the experiments, to confirm the ability to quantify an effect on kidney burden. […] Serial dilutions of the tissue homogenates were conducted, 0.1 mL aliquots were spread on YPD agar plates, and the plates incubated at 35 °C overnight. cfu/g kidneys were determined from colony counts. […]

The test system of data set [12] is C. albicans. Nature of the data set: MIC assay in the presence of CaCl2 (divalent cation inhibition). It is filed as cell-based. As to conditions: Candida albicans, 2.5 mM CaCl2. The protocol:
as §2, with “The MFC is defined as the lowest concentration of compound at which no colonies are observed. All MIC and MFC assays were performed in duplicate.” left out
To assess the effect of a divalent cations on the electrostatic interaction between mimetics and cell membrane of yeast, we used calcium chloride at concentrations of 2, 5, 7.5 and 10 […]. […] At each concentration of this cation, the MIC of mimetics were determined by the method described above.

[13] abbreviates: C. albicans SC5314, 50% human serum, read-out: MIC+50% Human serum.
[14] abbreviates: C. albicans SC5314, without human serum.
Where [15] appears, read: C. albicans SC5314, without human serum, 24 h, read-out: MIC.
[16] abbreviates: 32 µg/mL HDP mimetic, C. albicans.

On to `N=C(N)N1CCN(c2ccc(-c3cc(-c4ccc(N5CCN(C(=N)N)CC5)cc4)ncn3)cc2)CC1` [Compound 1], for which the MIC in [1] (setting [13]) was 4 µg/mL (≈ 8.25 µM); in data set [1] (setting [15]), 4 µg/mL (≈ 8.25 µM); in [3], 32 µg/mL (≈ 66 µM); in data set [4], 4 µg/mL (≈ 8.25 µM); in [5], 4 to 8 µg/mL (≈ 8.25 to 16.5 µM); in data set [6], 8 µg/mL (≈ 16.5 µM). Also, the minimum inhibitory concentration (MIC) in [10] was in the range of 4 to 8 µg/mL (≈ 8.25 to 16.5 µM). In data set [1] (setting [14]), the MFC was 8 µg/mL (≈ 16.5 µM). In data set [2], this molecule showed an EC50 greater than 1790 µM. The “time to maximum incorporation of PI” value in [7] (setting [16]) was determined as 30 min. Also, the EC50 at 1 h in data set [8] worked out at 311 µM. In data set [9], the MTD turned out to be 10 mg/kg free base.

In the case of `OC(Cn1cncn1)(Cn1cncn1)c1ccc(F)cc1F` [Fluconazole, fluconazole, reference compound], the MIC in data set [1] (setting [15]) turned out to be 0.25 µg/mL (≈ 0.816 µM). Further, the “log10 reduction in kidney cfu” value in [11] was determined as 3 log.

In the case of `CCO` [95% ethanol, ethanol, reference compound], the “PI entered the cell” value in data set [7] (positive control, within 7 min) is 100%.

On to `NCCCOc1cc(OCCCN)cc(-c2ccc3c(c2)c2cc(-c4cc(OCCCN)cc(OCCCN)c4)ccc2n3CCCN)c1` [Compound 4], for which the minimal inhibitory concentration (MIC) is 4 µg/mL (≈ 5.98 µM) in [1] (setting [13]); 4 µg/mL (≈ 5.98 µM) in [1] (setting [15]); 16 µg/mL (≈ 23.9 µM) in data set [3]; 2 µg/mL (≈ 2.99 µM) in [4]; 2 to 4 µg/mL (≈ 2.99 to 5.98 µM) in data set [5]; 4 µg/mL (≈ 5.98 µM) in data set [6]. Moreover, the MIC in data set [10] came out at 2 µg/mL (≈ 2.99 µM). In data set [1] (setting [14]), this molecule yielded an MFC of 8 µg/mL (≈ 12 µM). Besides, the concentration for a half-maximal effect (EC50) in [2] is greater than 1170 µM. The “rate of membrane activity (PI incorporation)” value in data set [7] (32 µg/mL HDP mimetic, C. albicans, comparison among compounds) is reported as “most rapid membrane activity”. A half-maximal response in data set [8] (EC50 at 1 h) required 436 µM. Further, in data set [9], the MTD turned out to be 20 mg/kg free base.

With `N=C(N)NCCCc1cc(CCCNC(=N)N)cc(NC(=O)c2ccc(C(=O)Nc3cc(CCCNC(=N)N)cc(CCCNC(=N)N)c3)cc2)c1` [Compound 2], the MIC was 4 µg/mL (≈ 5.61 µM) in data set [1] (setting [13]); 4 µg/mL (≈ 5.61 µM) in data set [1] (setting [15]); greater than 60 µg/mL in data set [12]; 8 µg/mL (≈ 11.2 µM) in [3]; 8 µg/mL (≈ 11.2 µM) in data set [4]; 8 µg/mL (≈ 11.2 µM) in data set [5]. For the same molecule, the values for the MIC in data set [6] and in [10] were 32 µg/mL (≈ 44.9 µM) and 1 µg/mL (≈ 1.4 µM), respectively. Moreover, the minimal fungicidal concentration (MFC) in data set [1] (setting [14]) was 16 µg/mL (≈ 22.4 µM). In [2], this molecule displayed an EC50 greater than 1160 µM. For the same molecule, in data set [7] (setting [16]), the “time to maximum incorporation of PI” value is on record as 30 min. In data set [8], this molecule showed an EC50 at 1 h of 358 µM. The same molecule returned an MTD in data set [9] of 10 mg/kg free base.
